Reference: patent US9062095B2, “Mutant double cyclized receptor peptides inhibiting β1-adrenoceptor antibodies” (JULIUS-MAXIMILIANS-UNIVERSTITAT-WURZBURG, priority 2007, dated 2015)
Positions of bridges follow the written chain, without caps; N, C: chain ends.

System: beta1-receptor antibodies
Experiment: in vivo prevention study: five prophylactic peptide applications, serum antibody-titers by ELISA
Set-up: species or system rat
Settings: 1.0 mg/kg body weight i.v., 4-weekly, prevention protocol (FIG. 12)
Method: FIG. 12 is a diagram resuming the in vivo blocking capacity of in total five (prophylatic) applications of various linear and cyclic beta1-ECII-peptides, started 3 months after the first immunization (and two subsequent beta1-ECII/GST-antigen-boosts, corresponding to a prevention protocol). Serum-titers of the beta1-receptor antibodies were determined before and 18-20 h after each peptide injection (abscissa, time in months) and are given in % of the corresponding antibody-titers of immunized untreated rats (y-axis, ordinate). The injected peptides were: 25AA Cys/Cys linear peptide (black squares), […] (white squares), 18AA Cys/Cys cyclopeptide (black diamond), 18AA Cys/Ser cyclopeptide mutant (white diamonds), and the 18AA Cys/Ser linear peptide mutant (vertically hatched diamonds). […] Black circles indicate antibody-titers of untreated regularly (every 4 weeks) immunized animals serving as reference, set at 100%.
The in-vivo blocking effects of both 25AA and 18AA Cys/Ser mutant cyclopeptides (with a Gln closure site), the 18AA Ser/Cys mutant cyclopeptide, and a mutated linear 18AA Cys/Ser peptide were analyzed after intravenous (i.v.) injection of 1.0 mg/kg body weight (Bw) of each construct into freshly immunized antibody-positive rats (i.e., use of cyclo-peptides in a kind of “prevention” study), with a first cyclopeptide-application 3 months after the initial immunization (and two subsequent boost at months 2 and 3). In total, five prophylactic applications of the various constructs were given at 4-weekly intervals, always two weeks after the monthly continued antigen boost. Sera were drawn 18-20 hours after i.v. injection and assayed for reactivity by ELISA using the 3 Cys-containing linear 25AA Cys/Cys-peptide as an antigen (FIG. 12).

Substance: Cyclo-Ala-Asp-Glu-Ala-Arg-Arg-Cys-Tyr-Asn-Asp-Pro-Lys-Cys-Ser-Asp-Phe-Val-Gln (cyclo(ADEARRCYNDPKCSDFVQ); disulfide 7-13; SMILES CC(C)[C@@H]1NC(=O)[C@H](Cc2ccccc2)NC(=O)[C@H](CC(=O)O)NC(=O)[C@H](CO)NC(=O)[C@@H]2CSSC[C@H](NC(=O)[C@H](CCCNC(=N)N)NC(=O)[C@H](CCCNC(=N)N)NC(=O)[C@H](C)NC(=O)[C@H](CCC(=O)O)NC(=O)[C@H](CC(=O)O)NC(=O)[C@H](C)NC(=O)[C@H](CCC(N)=O)NC1=O)C(=O)N[C@@H](Cc1ccc(O)cc1)C(=O)N[C@@H](CC(N)=O)C(=O)N[C@@H](CC(=O)O)C(=O)N1CCC[C@H]1C(=O)N[C@@H](CCCCN)C(=O)N2) [18AA Cys/Ser mutant (Gln-)cyclopeptide, disulphide bond Cys7-Cys13, ring closure Ala1-Gln18]
- antibody-titer decrease after 5 injections, compared with untreated immunized animals: 54.5±2%
